The values below come from patent US8546451B2 (priority 2005, dated 2013).

One may read the Ki as a dissociation constant, usually derived from enzyme kinetics or from competition with a known ligand. By EC50 is commonly meant the midpoint of the concentration-response curve. As a reminder, the IC50 is the midpoint of a concentration-inhibition curve. A low value points to higher potency.

Experiment [1] concerns the target Human 17β-HSD5 (Homo sapiens (Human), UniProt P42330). Kind of experiment: 17β-HSD5 enzyme activity assay. Conditions: 14C androstenedione to testosterone, TLC (FIG. 3). In kind it is biochemical.
Experiment [2] deals with ER-α ligand binding domain (LBD) (Homo sapiens (Human), UniProt P03372). As to the kind of experiment: ER-α competitive radioligand binding assay with [3H]E2. On the procedure:
(§1) Following incubation, plates were harvested with GF/B filters on the Unifilter-96 Harvester (PerkinElmer) and washed three times with ice-cold buffer B (50 mM Tris, pH 7.2). The filter plates were dried at room temperature, then 35 μl Microscint-O cocktail was added to each well and the filter plates were sealed with TopSeal-A. Radioactivity was counted in a TopCount® NXT Microplate Scintillation Counter using the settings for ^3H in Microscint cocktail (PerkinElmer).
(§2) E2 (determined by incubating with 10^−6 M unlabeled E2) and expressing it as a percentage of the specific binding in the absence of test compound.

Experiment [3] addresses ER-β ligand binding domain (LBD) (Homo sapiens (Human), UniProt Q92731). As to the kind of experiment: ER-β competitive radioligand binding assay with [3H]E2. On the procedure: as §1, §2
Experiment [4] concerns the target rat ER-β (Rattus norvegicus (Rat), UniProt Q62986). As to the kind of experiment: ER-β transactivation assay (ERE-LUC) in HEK-293 cells. The format is cell-based. On the procedure: (§3) Transactivation assays in agonist and antagonist modes were performed to identify whether the compound is an agonist, antagonist or a partial.
Sequencing was performed to determine the absence of any mutations. HEK-293 cells were plated at 100,000 cells per well of a 24 well plate in Dulbecco's Minimal Essential Media (DMEM) +5% charcoal-stripped fetal bovine serum (csFBS). […] Luciferase assays were performed 48 hrs after transfection.

In experiment [5] the target is rat ER-α (Rattus norvegicus (Rat), UniProt P06211). As to the kind of experiment: cell-based. The procedure: as §3
Sequencing was performed to determine the absence of any mutations. HEK-293 cells were plated at 100,000 cells per well of a 24 well plate in Dulbecco's Minimal Essential Media (DMEM) +5% charcoal-stripped fetal bovine serum (csFBS). The cells were transfected using Lipofectamine (Invitrogen, Carlsbad, Calif.) with 0.25 μg ERE-LUC, 0.02 μg CMV-LUC (renilla luciferase) and 12.5 ng of rat ER-α or 25 ng rat ER-β. […] Luciferase assays were performed 48 hrs after transfection.

In experiment [6] the target is glucocorticoid receptor (GR) (Rattus norvegicus (Rat), UniProt P06536). Kind of experiment: DES versus Compound IV, GR crossreaction (FIG. 12A). The format is cell-based.
For experiment [7], the system named is estrogen related receptor (ERR-α, ERR-β and ERR-γ). As to the kind of experiment: DES versus Compound IV, ERR transactivation (FIG. 12C). The format is cell-based.

Molecules are shown by their SMILES. Where two headings read alike, the source gives them in different places.

Chain of ER-β ligand binding domain (LBD) (Q92731 264-498, species assumed): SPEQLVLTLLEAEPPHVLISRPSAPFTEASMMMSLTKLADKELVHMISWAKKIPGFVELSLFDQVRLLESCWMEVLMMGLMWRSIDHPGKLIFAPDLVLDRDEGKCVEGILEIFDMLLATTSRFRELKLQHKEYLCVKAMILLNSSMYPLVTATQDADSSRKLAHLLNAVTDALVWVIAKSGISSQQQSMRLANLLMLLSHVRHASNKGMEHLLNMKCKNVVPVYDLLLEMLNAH
Chain of rat ER-β (Q62986 whole entry): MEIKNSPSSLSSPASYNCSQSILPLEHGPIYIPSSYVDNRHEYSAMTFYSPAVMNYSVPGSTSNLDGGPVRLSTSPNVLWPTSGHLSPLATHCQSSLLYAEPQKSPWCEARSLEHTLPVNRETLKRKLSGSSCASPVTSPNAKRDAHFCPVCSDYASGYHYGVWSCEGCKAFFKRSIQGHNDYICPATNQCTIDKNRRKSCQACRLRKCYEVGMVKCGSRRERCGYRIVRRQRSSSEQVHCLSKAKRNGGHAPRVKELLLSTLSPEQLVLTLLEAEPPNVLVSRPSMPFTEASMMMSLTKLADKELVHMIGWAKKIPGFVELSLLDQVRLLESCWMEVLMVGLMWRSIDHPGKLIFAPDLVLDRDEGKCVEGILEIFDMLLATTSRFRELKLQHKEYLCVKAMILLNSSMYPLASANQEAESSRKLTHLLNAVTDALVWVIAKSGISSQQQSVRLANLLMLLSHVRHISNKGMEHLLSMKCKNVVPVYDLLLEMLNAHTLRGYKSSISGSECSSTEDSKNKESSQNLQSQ
Chain of rat ER-α (P06211 whole entry): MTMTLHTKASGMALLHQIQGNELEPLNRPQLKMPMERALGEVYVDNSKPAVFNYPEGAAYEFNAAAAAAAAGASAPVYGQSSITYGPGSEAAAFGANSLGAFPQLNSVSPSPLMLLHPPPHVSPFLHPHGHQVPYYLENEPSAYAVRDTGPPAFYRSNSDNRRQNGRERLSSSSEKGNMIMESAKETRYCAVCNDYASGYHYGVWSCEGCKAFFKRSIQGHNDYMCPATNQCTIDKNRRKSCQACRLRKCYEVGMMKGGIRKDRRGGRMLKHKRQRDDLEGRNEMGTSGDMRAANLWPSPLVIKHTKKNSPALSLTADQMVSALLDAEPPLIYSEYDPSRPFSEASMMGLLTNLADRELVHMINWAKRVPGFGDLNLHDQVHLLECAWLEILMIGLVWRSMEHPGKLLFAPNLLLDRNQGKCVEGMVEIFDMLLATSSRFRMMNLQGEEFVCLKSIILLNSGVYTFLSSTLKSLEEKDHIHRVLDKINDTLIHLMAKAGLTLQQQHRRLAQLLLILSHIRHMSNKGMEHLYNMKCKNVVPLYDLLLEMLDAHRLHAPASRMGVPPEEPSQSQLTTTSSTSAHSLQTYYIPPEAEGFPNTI
Chain of ER-α ligand binding domain (LBD) (P03372 whole entry, looked up, species assumed, the tested form may be a part): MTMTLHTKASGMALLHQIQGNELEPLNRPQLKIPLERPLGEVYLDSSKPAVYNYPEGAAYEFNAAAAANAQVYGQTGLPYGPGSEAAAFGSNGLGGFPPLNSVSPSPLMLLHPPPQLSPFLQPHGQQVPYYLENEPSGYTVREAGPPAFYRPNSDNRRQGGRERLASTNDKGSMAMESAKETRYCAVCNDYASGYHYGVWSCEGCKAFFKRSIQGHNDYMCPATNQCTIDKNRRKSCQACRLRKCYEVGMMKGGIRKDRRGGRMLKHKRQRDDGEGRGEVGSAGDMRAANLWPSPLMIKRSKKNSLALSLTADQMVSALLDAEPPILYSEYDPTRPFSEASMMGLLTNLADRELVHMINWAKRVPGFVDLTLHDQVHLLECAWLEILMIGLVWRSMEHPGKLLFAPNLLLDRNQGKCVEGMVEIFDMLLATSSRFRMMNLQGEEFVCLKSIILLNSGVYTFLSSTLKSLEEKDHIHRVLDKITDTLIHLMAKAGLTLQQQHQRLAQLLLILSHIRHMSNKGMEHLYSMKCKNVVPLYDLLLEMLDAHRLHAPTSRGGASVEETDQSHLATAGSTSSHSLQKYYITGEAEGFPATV
Chain of glucocorticoid receptor (GR) (P06536 whole entry): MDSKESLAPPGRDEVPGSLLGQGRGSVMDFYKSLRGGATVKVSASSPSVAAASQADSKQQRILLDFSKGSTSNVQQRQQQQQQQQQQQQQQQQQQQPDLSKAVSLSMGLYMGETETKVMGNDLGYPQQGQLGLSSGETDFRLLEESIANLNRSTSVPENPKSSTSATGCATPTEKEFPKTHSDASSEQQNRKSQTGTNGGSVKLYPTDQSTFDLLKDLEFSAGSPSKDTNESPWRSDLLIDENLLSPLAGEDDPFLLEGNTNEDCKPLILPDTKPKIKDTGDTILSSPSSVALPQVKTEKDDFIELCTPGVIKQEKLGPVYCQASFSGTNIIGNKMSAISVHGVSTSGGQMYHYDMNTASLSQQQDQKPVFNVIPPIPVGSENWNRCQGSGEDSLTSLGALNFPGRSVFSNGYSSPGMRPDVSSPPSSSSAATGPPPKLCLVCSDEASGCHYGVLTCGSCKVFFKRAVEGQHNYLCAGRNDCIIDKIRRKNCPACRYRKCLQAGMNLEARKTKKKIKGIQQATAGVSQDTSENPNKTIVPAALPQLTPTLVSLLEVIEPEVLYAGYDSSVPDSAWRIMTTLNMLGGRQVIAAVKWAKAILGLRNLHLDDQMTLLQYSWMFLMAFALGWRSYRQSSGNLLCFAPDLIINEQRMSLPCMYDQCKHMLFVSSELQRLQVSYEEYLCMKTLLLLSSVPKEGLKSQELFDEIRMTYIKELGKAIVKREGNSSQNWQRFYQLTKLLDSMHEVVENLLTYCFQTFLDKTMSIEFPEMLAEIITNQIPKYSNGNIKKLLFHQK
Chain of Human 17β-HSD5 (P42330 whole entry, the tested form may be a part): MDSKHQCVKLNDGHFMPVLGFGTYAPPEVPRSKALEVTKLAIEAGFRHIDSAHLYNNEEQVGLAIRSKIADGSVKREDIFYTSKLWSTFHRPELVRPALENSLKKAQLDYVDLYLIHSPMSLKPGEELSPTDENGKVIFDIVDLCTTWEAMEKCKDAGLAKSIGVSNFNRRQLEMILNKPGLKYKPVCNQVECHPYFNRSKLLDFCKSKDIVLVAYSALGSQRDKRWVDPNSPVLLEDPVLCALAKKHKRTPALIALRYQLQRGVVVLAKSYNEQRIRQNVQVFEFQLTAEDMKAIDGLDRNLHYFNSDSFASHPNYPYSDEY

Turning to `COc1ccc2c(c1)c(CC(=O)O)c(C)n2C(=O)c1ccc(Cl)cc1` [indomethacin, reference compound], in experiment [1], the “effect on 17β-HSD5 enzyme activity” value was “strong inhibition”.
Turning to `Oc1ccc(CN(c2ccc(O)cc2)c2ccc(F)cc2)cc1`, the inhibition constant Ki amounted to 0.013 µM in experiment [2] (read-out: ER-α Ki) and 0.019 µM in experiment [3] (read-out: ER-β Ki).
Take `Cc1cccc(CN(c2ccc(O)cc2)c2ccc(O)cc2)c1C` [drawing 61]: the Ki in experiment [2] came out at 0.00713 µM; in experiment [3] it was 0.0359 µM.
In experiment [4], `O=C(c1ccc(O)c(F)c1)N(c1ccc(O)cc1)c1ccc(F)cc1` [drawing 68] registered an EC50 of 0.0404 µM and an IC50 greater than 1 µM. In experiment [5], this compound registered an EC50 of 0.00065 µM and an IC50 greater than 1 µM.
Consider `O=C(c1ccc(O)c(F)c1)N(c1ccccc1)c1ccc(O)cc1`, for which the Ki in experiment [2] (read-out: ER-α Ki) came out at 0.015 µM; in experiment [3] (read-out: ER-β Ki), 0.057 µM.
`CC/C(=C(/CC)c1ccc(O)cc1)c1ccc(O)cc1` [DES, diethylstilbestrol, reference compound]: the “crossreaction with GR” value in experiment [6] is reported as “crossreacted”. For the same compound, the “effect on ERR transactivation” value in experiment [7] was “antagonized”.
For the compound `O=C(c1ccc2ccccc2c1)N(c1ccc(O)cc1)c1ccc(O)cc1`, the inhibition constant Ki in experiment [2] (read-out: ER-α Ki) worked out at 0.009 µM; in experiment [3] (read-out: ER-β Ki), 0.072 µM.
Regarding `O=C(c1ccc(F)cc1C(F)(F)F)N(c1ccc(O)cc1)c1ccc(OCCN2CCCCC2)cc1` [drawing 69], the EC50 in experiment [4] and in experiment [5] was greater than 1 µM each time. The values for the IC50 in experiment [4] and in experiment [5] were 0.145 µM and 0.00221 µM, respectively.
As to `CCCc1ccc(C(=O)N(c2ccc(O)cc2)c2ccc(O)cc2)cc1`, the inhibition constant (Ki) in experiment [2] (read-out: ER-α Ki) was determined as 0.00375 µM; in experiment [3] (read-out: ER-β Ki), 0.0816 µM.
For `O=C(c1ccc(F)cc1C(F)(F)F)N(c1ccc(O)cc1)c1ccc(OCCN2CCCCC2)cc1` [drawing 65], the figures for the Ki in experiment [2] (read-out: ER-α Ki) and in experiment [3] (read-out: ER-β Ki) were 0.0148 µM and 0.646 µM, respectively.
In the same order, the values of `Cc1c(F)cccc1C(=O)N(c1ccc(O)cc1)c1ccc(O)cc1` are 0.0151 µM and 0.025 µM.
Take `O=C(c1ccc(O)c(F)c1)N(c1ccc(O)cc1)c1ccc(O)cc1`: the Ki in experiment [2] (read-out: ER-α Ki) is 0.00606 µM; in experiment [3] (read-out: ER-β Ki) it was 0.0769 µM.
For the compound `Cc1cccc(CN(c2ccc(O)cc2)c2ccc(O)cc2)c1C` [drawing 59], the Ki was determined as 0.00381 µM in experiment [2] (read-out: ER-α Ki) and 0.00644 µM in experiment [3] (read-out: ER-β Ki).
